The values that follow come from ChEMBL document CHEMBL1147277, “Pentagalloylglucose, a xanthine oxidase inhibitor from a Paraguayan crude drug, "Molle-i" (Schinus terebinthifolius)” (J Nat Prod, 1989).

Test [1] concerns the target T1, Xanthine dehydrogenase/oxidase (Bos taurus, UniProt P80457). Nature of the test: Inhibition of cow milk xanthine oxidase by Lineweaver-Burke plot analysis. The following applies: read-out: Activity.
The target of test [2] is T1, Xanthine dehydrogenase/oxidase. Nature of the test: Inhibition of cow milk xanthine oxidase.

What is called IC50 is the concentration that gives 50% inhibition. A higher IC50 goes with weaker potency in that assay.

T1 sequence (P80457 whole entry): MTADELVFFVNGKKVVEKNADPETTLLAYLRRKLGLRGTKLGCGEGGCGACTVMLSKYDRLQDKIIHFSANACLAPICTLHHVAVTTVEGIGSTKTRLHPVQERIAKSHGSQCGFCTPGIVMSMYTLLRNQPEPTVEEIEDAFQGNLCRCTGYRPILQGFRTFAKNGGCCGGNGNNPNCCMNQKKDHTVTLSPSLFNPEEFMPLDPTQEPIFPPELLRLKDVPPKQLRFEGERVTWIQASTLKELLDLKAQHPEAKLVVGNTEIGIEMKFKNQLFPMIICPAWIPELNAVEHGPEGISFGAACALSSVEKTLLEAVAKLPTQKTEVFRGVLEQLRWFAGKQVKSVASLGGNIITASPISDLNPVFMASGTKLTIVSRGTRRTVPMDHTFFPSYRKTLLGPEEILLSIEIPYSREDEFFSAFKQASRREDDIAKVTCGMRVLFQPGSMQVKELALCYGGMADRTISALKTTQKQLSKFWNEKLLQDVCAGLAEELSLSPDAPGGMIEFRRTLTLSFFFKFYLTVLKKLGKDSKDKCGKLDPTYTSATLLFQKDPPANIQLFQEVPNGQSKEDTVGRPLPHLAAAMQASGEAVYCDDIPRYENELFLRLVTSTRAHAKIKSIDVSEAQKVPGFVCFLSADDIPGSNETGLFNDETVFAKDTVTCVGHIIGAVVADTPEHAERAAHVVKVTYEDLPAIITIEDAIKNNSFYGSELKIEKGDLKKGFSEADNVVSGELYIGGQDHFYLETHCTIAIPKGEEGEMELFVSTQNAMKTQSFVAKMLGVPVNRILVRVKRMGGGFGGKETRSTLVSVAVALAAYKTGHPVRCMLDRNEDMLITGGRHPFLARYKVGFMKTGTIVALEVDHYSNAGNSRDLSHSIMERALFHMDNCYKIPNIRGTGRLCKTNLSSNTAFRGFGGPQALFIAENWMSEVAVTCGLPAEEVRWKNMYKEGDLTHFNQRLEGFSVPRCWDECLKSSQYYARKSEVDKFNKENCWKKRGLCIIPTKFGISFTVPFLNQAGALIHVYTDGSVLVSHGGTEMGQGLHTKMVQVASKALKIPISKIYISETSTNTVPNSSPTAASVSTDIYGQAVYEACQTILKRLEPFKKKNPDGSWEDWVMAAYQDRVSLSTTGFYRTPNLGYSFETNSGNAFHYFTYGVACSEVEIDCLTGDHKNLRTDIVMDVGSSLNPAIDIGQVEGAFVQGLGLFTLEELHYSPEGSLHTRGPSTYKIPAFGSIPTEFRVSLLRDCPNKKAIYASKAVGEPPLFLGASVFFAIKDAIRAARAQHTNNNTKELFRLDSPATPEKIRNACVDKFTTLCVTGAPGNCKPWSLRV

With `O=C(OC[C@H]1O[C@@H](OC(=O)c2cc(O)c(O)c(O)c2)[C@H](OC(=O)c2cc(O)c(O)c(O)c2)[C@@H](OC(=O)c2cc(O)c(O)c(O)c2)[C@@H]1OC(=O)c1cc(O)c(O)c(O)c1)c1cc(O)c(O)c(O)c1` [PENTAGALLOYL GLUCOSE], in test [1], the Ki stood at 2120 nM. Further, the IC50 in test [2] was found to be 3200 nM.
